Consider 18 molecules from US9844536B2, “3-(1H-imidazo[4,5-C]pyridin-2-yl)-1H-pyrazolo[3,4-C]pyridine and therapeutic uses thereof” (Samumed, LLC, priority 2014, dated 2017).

Each structure is given as a SMILES string.

Assay [1] deals with Wnt pathway (Sp5-Luc reporter, SW480 cells). The assay is described as follows: Sp5-Luc reporter gene screening assay for Wnt activity in SW480 colon carcinoma cells. In kind it is cell-based. The conditions noted are these: Homo sapiens. The text has this: The screening assay for Wnt activity is described as follows. Reporter cell lines can be generated by stably transducing cancer cell lines (e.g., colon cancer) or primary cells (e.g., IEC-6 intestinal cells) with a lentiviral construct that includes a Wnt-responsive promoter driving expression of the firefly luciferase gene.
SW480 colon carcinoma cells were transduced with a lentiviral vector expressing luciferase with a human Sp5 promoter consisting of a sequence of eight TCF/LEF binding sites. SW480 cells stably expressing the Sp5-Luc reporter gene and a hygromycin resistance gene were selected by treatment with 150 μg/ml of hygromycin for 7 days. These stably transduced SW480 cells were expanded in cell culture and used for all further screening activities. For Sp5-Luc reporter gene assays, the cells were plated at 10,000 cells/well in 96-well plates with growth medium containing 10% fetal calf serum and incubated overnight at 37° C. and 5% CO2. Each compound was dissolved in DMSO as a 10 mM stock in standard j-vials and used to prepare compound source plates in dose-response format with 3-fold serial dilutions and a 10 mM top concentration. Compound transfer from serially diluted source plates to assay plates containing the cells was accomplished using a pintool (Multimek 96, Beckman equipped with V&P Scientific FP1S50H pins) based liquid handling protocol. This protocol used a slotted pin to transfer 50 nl of compound from a source plate well to an assay plate well containing 50 μl of cells in growth medium. […] Control wells received 50 nl of DMSO treatment for normalization and calculating IC50 values. The treated cells were incubated at 37° C. and 5% CO2 for an additional forty-two hours. Following incubation, the growth medium was removed and 50 μl of BrightGlo luminescence reagent (Promega) was added to each well of the 96-well assay plates. The plates were placed on an orbital shaker for 5 min and then luminescence was quantified on the Victor3 (Perkin Elmer) plate reader. Readings were normalized to DMSO only treated cells, and normalized activities were utilized for IC50 calculations using the dose-response log (inhibitor) vs. response-variable slope (four parameters) nonlinear regression feature available in GraphPad Prism 5.0 or 6.0.

For another assay, the system named is LL29 cells. As to the kind of experiment: Inhibition of the fibrotic process (αSMA staining) in TGF-β1 treated primary human fibroblasts from IPF patients. In kind it is cell-based. The conditions noted are these: Fibroblast, 96 h, TGF-β1 20 ng/mL, 4 days, dose-response 10 μM to 1.87 nM, read-out: Inhibition of fibrosis EC50. The text has this: The above synthesized compounds were screened using primary human fibroblasts (derived from IPF patients) treated with TGF-β1 to determine their ability to inhibit the fibrotic process.
Primary human fibroblasts derived from IPF patients (LL29 cells) [^1Xiaoqiu Liu, et. al., “Fibrotic Lung Fibroblasts Show Blunted Inhibition by cAMP Due to Deficient cAMP Response Element-Binding Protein Phosphorylation”, Journal of Pharmacology and Experimental Therapeutics (2005), 315(2), 678-687; ^2Watts, K. L., et. al., “RhoA signaling modulates cyclin D1 expression in human lung fibroblasts; implications for idiopathic pulmonary fibrosis”, Respiratory Research (2006), 7(1), 88] were obtained from American Type Culture Collection (ATCC) and expanded in F12 medium supplemented with 15% Fetal Bovine Serum and Penicillin/Streptomycin.
Each compound was dissolved in DMSO as a 10 mM stock and used to prepare compound source plates. Serial dilution (1:2, 11-point dose-response curves from 10 μM to 1.87 nM) and compound transfer was performed using the ECHO 550 (Labcyte, Sunnyvale, Calif.) into 384-well clear bottom assay plates (Greiner Bio-One) with appropriate DMSO backfill for a final DMSO concentration of 0.1%. LL29 cells were plated at 1,500 cells/well in 80 μl/well F12 medium supplemented with 1% Fetal Bovine Serum. One hour after addition of the cells, TGF-β1 (Peprotech; 20 ng/mL) was added to the plates to induce fibrosis (ref. 1 and 2 above). Wells treated with TGF-β1 and containing DMSO were used as controls. Cells were incubated at 37° C. and 5% CO2 for 4 days. Following incubation for 4 days, SYTOX green nucleic acid stain (Life Technologies [Thermo Fisher Scientific]) was added to the wells at a final concentration of 1 uM and incubated at room temperature for 30 min. Cells were then fixed using 4% formaldehyde (Electron Microscopy Sciences), washed 3 times with PBS followed by blocking and permeabilization using 3% Bovine Serum Albumin (BSA; Sigma) and 0.3% Triton X-100 (Sigma) in PBS. Cells were then stained with antibody specific to α-smooth muscle actin (αSMA; Abcam) (ref. 1 and 2 above) in 3% Bovine Serum Albumin (BSA; Sigma) and 0.3% Triton X-100 (Sigma) in PBS, and incubated overnight at 4° C. Cells were then washed 3 times with PBS, followed by incubation with Alexa Flor-647 conjugated secondary antibody (Life Technologies [Thermo Fisher Scientific]) and DAPI at room temperature for 1 hour. Cells were then washed 3 times with PBS and plates were sealed for imaging. αSMA staining was imaged by excitation at 630 nm and emission at 665 nm and quantified using the Compartmental Analysis program on the CellInsight CX5 (Thermo Scientific). Dead or apoptotic cells were excluded from analysis based on positive SYTOX green staining. % of total cells positive for αSMA were counted in each well and normalized to the average of 11 wells treated with TGF-31 on the same plate using Dotmatics' Studies Software. The normalized averages (fold change over untreated) of 3 replicate wells for each compound concentration were used to create dose-responses curves and EC50 values were calculated using non-linear regression curve fit in the Dotmatics' Studies Software. The EC50 values are reported.

In assay [1], `CCNCc1cncc(-c2cc3c(-c4nc5c(-c6ccccn6)nccc5[nH]4)n[nH]c3cn2)c1` [Compound 136, N-((5-(3-(4-(Pyridin-2-yl)-1H-imidazo[4,5-c]pyridin-2-yl)-1H-pyrazolo[3,4-c]pyridin-5-yl)pyridin-3-yl)methyl)ethanamine] gave an IC50 of 0.834 µM. Also, in the assay on LL29 cells, the half-maximal effective concentration (EC50) is at most 0.009 µM.

As to `O=C(Nc1cncc(-c2cc3c(-c4nc5c(-c6ccccn6)nccc5[nH]4)n[nH]c3cn2)c1)C1CCC1` [Compound 150, N-(5-(3-(4-(Pyridin-2-yl)-1H-imidazo[4,5-c]pyridin-2-yl)-1H-pyrazolo[3,4-c]pyridin-5-yl)pyridin-3-yl)cyclobutanecarboxamide], in assay [1], half-maximal inhibition (IC50) was put at 0.0715 µM. The concentration for a half-maximal effect (EC50) in the assay with LL29 cells was determined as 1.05 µM.

`c1ccc(-c2nccc3[nH]c(-c4n[nH]c5cnc(-c6cncc(CNCC7CCCC7)c6)cc45)nc23)nc1` [Compound 154, 1-Cyclopentyl-N-((5-(3-(4-(pyridin-2-yl)-1H-imidazo[4,5-c]pyridin-2-yl)-1H-pyrazolo[3,4-c]pyridin-5-yl)pyridin-3-yl)methyl)methanamine] came in with an IC50 in assay [1] of 0.219 µM. Also, in the assay on LL29 cells, the half-maximal effective concentration (EC50) stood at 0.14 µM.

In assay [1], `CCC(=O)Nc1cncc(-c2cc3c(-c4nc5c(N6CCCCC6)nccc5[nH]4)n[nH]c3cn2)c1` [Compound 157, N-(5-(3-(4-(Piperidin-1-yl)-1H-imidazo[4,5-c]pyridin-2-yl)-1H-pyrazolo[3,4-c]pyridin-5-yl)pyridin-3-yl)propionamide] returned an IC50 of 0.144 µM. The concentration for a half-maximal effect (EC50) with LL29 cells was found to be 0.347 µM.

Consider `CN(C)c1cncc(-c2cc3c(-c4nc5c(N6CCCCC6)nccc5[nH]4)n[nH]c3cn2)c1` [Compound 163, N,N-Dimethyl-5-(3-(4-(piperidin-1-yl)-1H-imidazo[4,5-c]pyridin-2-yl)-1H-pyrazolo[3,4-c]pyridin-5-yl)pyridin-3-amine], for which 0.311 µM corresponded to half-maximal inhibition in assay [1] (IC50). The EC50 in the assay on LL29 cells was at most 0.009 µM.

`CN(C)Cc1cncc(-c2cc3c(-c4nc5c(N6CCCCC6)nccc5[nH]4)n[nH]c3cn2)c1` [Compound 169, N,N-Dimethyl-1-(5-(3-(4-(piperidin-1-yl)-1H-imidazo[4,5-c]pyridin-2-yl)-1H-pyrazolo[3,4-c]pyridin-5-yl)pyridin-3-yl)methanamine] had a 50% inhibitory concentration (IC50) in assay [1] above 10 µM. Further, in the assay with LL29 cells, the EC50 stood at 3.11 µM.

Regarding `O=C(Nc1cncc(-c2cc3c(-c4nc5c(N6CCCCC6)nccc5[nH]4)n[nH]c3cn2)c1)C1CC1` [Compound 175, N-(5-(3-(4-(Piperidin-1-yl)-1H-imidazo[4,5-c]pyridin-2-yl)-1H-pyrazolo[3,4-c]pyridin-5-yl)pyridin-3-yl)cyclopropanecarboxamide], 0.636 µM corresponded to half-maximal inhibition in assay [1] (IC50). Also, the EC50 in the assay with LL29 cells is at most 0.009 µM.

Molecule `CC(C)C(=O)Nc1cncc(-c2cc3c(-c4nc5c(N6CCN(C)CC6)nccc5[nH]4)n[nH]c3cn2)c1` [Compound 217] had an IC50 in assay [1] of 1.07 µM. Also, the EC50 with LL29 cells was at least 9.99 µM.

Regarding `CN1CCN(c2nccc3[nH]c(-c4n[nH]c5cnc(-c6cncc(CN7CCCCC7)c6)cc45)nc23)CC1` [Compound 223, 3-(4-(4-Methylpiperazin-1-yl)-1H-imidazo[4,5-c]pyridin-2-yl)-5-(5-(piperidin-1-ylmethyl)pyridin-3-yl)-1H-pyrazolo[3,4-c]pyridine], the IC50 in assay [1] is above 10 µM. In addition, the EC50 in the assay with LL29 cells is at least 9.99 µM.

For `CN1CCN(c2nccc3[nH]c(-c4n[nH]c5cnc(-c6cncc(NC(=O)C7CCCC7)c6)cc45)nc23)CC1` [Compound 229, N-(5-(3-(4-(4-Methylpiperazin-1-yl)-1H-imidazo[4,5-c]pyridin-2-yl)-1H-pyrazolo[3,4-c]pyridin-5-yl)pyridin-3-yl)cyclopentanecarboxamide], in assay [1], the IC50 was above 10 µM. In the assay with LL29 cells, the EC50 was at least 9.99 µM.

The molecule `CN1CCN(c2nccc3[nH]c(-c4n[nH]c5cnc(-c6cncnc6)cc45)nc23)CC1` [Compound 234, 3-(4-(4-Methylpiperazin-1-yl)-1H-imidazo[4,5-c]pyridin-2-yl)-5-(pyrimidin-5-yl)-1H-pyrazolo[3,4-c]pyridine] returned an IC50 in assay [1] of 0.745 µM. Besides, the EC50 in the assay with LL29 cells was 1.38 µM.

`c1cncc(-c2cc3c(-c4nc5cnccc5[nH]4)n[nH]c3cn2)c1` [Compound 238, 3-(1H-Imidazo[4,5-c]pyridin-2-yl)-5-(pyridin-3-yl)-1H-pyrazolo[3,4-c]pyridine] gave a 50% inhibitory concentration (IC50) in assay [1] of 0.0665 µM. For the same molecule, the 50% effective concentration (EC50) with LL29 cells is at least 9.99 µM.

In assay [1], `O=C(Cc1ccccc1)Nc1cncc(-c2cc3c(-c4nc5cnccc5[nH]4)n[nH]c3cn2)c1` [Compound 244, N-(5-(3-(1H-Imidazo[4,5-c]pyridin-2-yl)-1H-pyrazolo[3,4-c]pyridin-5-yl)pyridin-3-yl)-2-phenylacetamide] came in with an IC50 of 1.3 µM. The EC50 in the assay with LL29 cells is at least 9.99 µM.

`O=C(Nc1cncc(-c2cc3c(-c4nc5cnccc5[nH]4)n[nH]c3cn2)c1)C1CCCCC1` [Compound 256, N-(5-(3-(1H-Imidazo[4,5-c]pyridin-2-yl)-1H-pyrazolo[3,4-c]pyridin-5-yl)pyridin-3-yl)cyclohexanecarboxamide] gave an IC50 in assay [1] of 0.531 µM. Moreover, the EC50 in the assay on LL29 cells is at least 9.99 µM.

For `CC(C)CC(=O)Nc1cncc(-c2cc3c(-c4nc5c(-c6ccsc6)nccc5[nH]4)n[nH]c3cn2)c1` [Compound 262, 3-Methyl-N-(5-(3-(4-(thiophen-3-yl)-1H-imidazo[4,5-c]pyridin-2-yl)-1H-pyrazolo[3,4-c]pyridin-5-yl)pyridin-3-yl)butanamide], inhibition in assay [1] was half-maximal at 0.139 µM (IC50). For the same molecule, in the assay on LL29 cells, the 50% effective concentration (EC50) was at least 9.99 µM.

In turn, `Cc1ccncc1-c1cc2c(-c3nc4c(-c5ccsc5)nccc4[nH]3)n[nH]c2cn1` [Compound 265, 5-(4-Methylpyridin-3-yl)-3-(4-(thiophen-3-yl)-1H-imidazo[4,5-c]pyridin-2-yl)-1H-pyrazolo[3,4-c]pyridine] had a half-inhibitory concentration (IC50) in assay [1] of 0.0599 µM. Further, in the assay on LL29 cells, the 50% effective concentration (EC50) came to 0.157 µM.

As to `CC(C)(C)C(=O)Nc1cncc(-c2cc3c(-c4nc5c(-c6ccsc6)nccc5[nH]4)n[nH]c3cn2)c1` [Compound 268, N-(5-(3-(4-(Thiophen-3-yl)-1H-imidazo[4,5-c]pyridin-2-yl)-1H-pyrazolo[3,4-c]pyridin-5-yl)pyridin-3-yl)pivalamide], the IC50 in assay [1] came out at 0.0413 µM. The EC50 in the assay with LL29 cells is at least 9.99 µM.

The molecule `O=C(Nc1cncc(-c2cc3c(-c4nc5c(-c6ccsc6)nccc5[nH]4)n[nH]c3cn2)c1)c1ccccc1` [Compound 271, N-(5-(3-(4-(Thiophen-3-yl)-1H-imidazo[4,5-c]pyridin-2-yl)-1H-pyrazolo[3,4-c]pyridin-5-yl)pyridin-3-yl)benzamide] showed an IC50 in assay [1] of 0.189 µM. The concentration giving a half-maximal response (EC50) with LL29 cells is at most 0.009 µM.
